Like-named read-outs stand apart in the source and are kept apart here.
Key:
Rat Paw Edema = test: Rat paw edema assay (carrageenan); type: in vivo, Sprague-Dawley rat
Experimental: Male Sprague-Dawley rats (150-200 g) are fasted overnight and are given po either vehicle (1% methocel or 5% Tween 80) or a test compound. One hr later, a line is drawn using a permanent marker at the level above the ankle in one hind paw to define the area of the paw to be monitored. The paw volume (V0) is measured using a plethysmometer (Ugo-Basile, Italy) based on the principle of water displacement. The animals are then injected subplantarly with 50 μl of 1% carrageenan solution in saline (FMC Corp, Maine) into the paw using an insulin syringe with a 25-gauge needle (i.e., 500 μg carrageenan per paw). Three hr later, the paw volume (V3) is measured and the increases in paw volume (V3 -V0) are calculated. The animals are sacrificed by CO2 asphyxiation and the absence or presence of stomach lesions scored. Data is compared with the vehicle-control values and percent inhibition calculated. All treatment groups are coded to eliminate observer bias.

cyclooxygenase-1 = cyclooxygenase-1 (Homo sapiens, UniProt P23219); test: cell-based; details: PGE2 production, human U-937 cells, 10 μM arachidonic acid; read-out: Cox-1 IC50
Experimental: (§1) Compounds were tested as inhibitors of cyclooxygenase activity in whole cell cyclooxygenase assays. Both of these assays measured prostaglandin E2 synthesis in response to arachidonic acid, using a radioimmunoassay. Cells used for these assays were human osteosarcoma 143 cells (which specifically express cyclooxygenase-2) and human U-937 cells (which specifically express cyclooxygenase-1). In these assays, 100% activity is defined as the difference between prostaglandin E2 synthesis in the absence and presence of arachidonate addition.
(§2) For cyclooxygenase assays, osteosarcoma cells are cultured in 1 mL of media in 24-well multidishes (Nunclon) until confluent (1-2×10^5 cells/well). U-937 cells are grown in spinner flasks and resuspended to a final density of 1.5×10^6 cells/mL in 24-well multidishes (Nunclon). Following washing and resuspension of osteosarcoma and U-937 cells in 1 mL of Hanks balanced salts solution (HBSS), 2 μL of a DMSO solution of test compound or DMSO vehicle is added, and samples gently mixed. All assays are performed in triplicate. Samples are then incubated for 5 or 15 minutes at 37° C., prior to the addition of arachidonic acid. Arachidonic acid (peroxide-free, Cayman Chemical) is prepared as a 10 mM stock solution in ethanol and further diluted 10-fold in HBSS. An aliquot of 10 μL of this diluted solution is added to the cells to give a final arachidonic acid concentration of 10 μM. Control samples are incubated with ethanol vehicle instead of arachidonic acid. Samples are again gently mixed and incubated for a further 10 min at 37° C. For osteosarcoma cells, reactions are then stopped by the addition of 100 μL of 1N HCl, with mixing and by the rapid removal of the solution from cell monolayers. For U-937 cells, reactions are stopped by the addition of 100 μL of 1N HCl, with mixing. Samples are then neutralized by the addition of 100 μL of 1N NaOH and PGE2 levels measured by radioimmunoassay.
(§3) In the assay, inhibition is determined by measuring the amount of prostaglandin E2 (PGE2) synthesized in the presence of arachidonic acid, cyclooxygenase-1 or cyclooxygenase-2 and a putative inhibitor.

cyclooxygenase-2 = target: T1, cyclooxygenase-2 (Homo sapiens, UniProt P35354); test: cell-based; details: PGE2 production, human osteosarcoma 143 cells, 10 μM arachidonic acid; read-out: Cox-2 IC50
T1 sequence (P35354 18-604): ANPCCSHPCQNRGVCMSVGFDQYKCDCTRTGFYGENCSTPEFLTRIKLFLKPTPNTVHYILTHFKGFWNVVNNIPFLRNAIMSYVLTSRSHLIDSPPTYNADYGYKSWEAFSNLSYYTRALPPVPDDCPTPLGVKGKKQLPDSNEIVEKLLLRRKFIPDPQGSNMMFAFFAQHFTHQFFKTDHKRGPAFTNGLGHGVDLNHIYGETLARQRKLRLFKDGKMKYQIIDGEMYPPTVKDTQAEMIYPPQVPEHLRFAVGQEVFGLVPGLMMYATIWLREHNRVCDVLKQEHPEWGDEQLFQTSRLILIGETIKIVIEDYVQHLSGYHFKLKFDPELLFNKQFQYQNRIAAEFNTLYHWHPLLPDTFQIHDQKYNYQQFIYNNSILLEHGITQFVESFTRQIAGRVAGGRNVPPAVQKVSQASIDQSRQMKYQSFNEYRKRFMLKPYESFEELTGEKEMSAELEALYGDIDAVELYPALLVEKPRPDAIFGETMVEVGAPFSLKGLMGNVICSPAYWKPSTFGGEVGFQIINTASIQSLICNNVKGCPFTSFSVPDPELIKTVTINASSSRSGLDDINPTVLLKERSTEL
Experimental: as §1, §2, §3

[1] = edema inhibition, rat, po 1 hr before carrageenan, paw volume at 3 hr, read-out: ED30

Sequence of cyclooxygenase-1 (P23219 24-599): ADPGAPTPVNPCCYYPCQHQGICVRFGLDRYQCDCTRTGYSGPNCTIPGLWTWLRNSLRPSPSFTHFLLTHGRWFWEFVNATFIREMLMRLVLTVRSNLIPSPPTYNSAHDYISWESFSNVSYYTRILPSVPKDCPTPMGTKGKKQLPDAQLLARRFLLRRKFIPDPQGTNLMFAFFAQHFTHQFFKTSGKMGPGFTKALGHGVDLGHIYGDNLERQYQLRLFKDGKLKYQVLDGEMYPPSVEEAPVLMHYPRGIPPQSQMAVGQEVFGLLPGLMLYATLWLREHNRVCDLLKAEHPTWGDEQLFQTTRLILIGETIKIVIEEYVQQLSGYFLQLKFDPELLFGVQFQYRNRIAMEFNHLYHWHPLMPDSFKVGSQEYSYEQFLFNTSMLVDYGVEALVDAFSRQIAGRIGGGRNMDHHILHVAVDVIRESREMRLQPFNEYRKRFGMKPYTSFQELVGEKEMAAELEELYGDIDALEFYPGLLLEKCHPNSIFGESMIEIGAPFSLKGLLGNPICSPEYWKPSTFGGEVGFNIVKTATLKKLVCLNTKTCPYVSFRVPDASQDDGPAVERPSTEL

Row | Compound | ED30 (Rat Paw Edema; Rattus norvegicus, po, 3 h) | IC50 (cyclooxygenase-1) | IC50 (cyclooxygenase-2) | ED30 (Rat Paw Edema; [1])
1 | COc1ccc2c(c1)c(C(C)CC(=O)[O-])c(C)n2Cc1ccc(Br)cc1.[Na+] (racemic) | 0.7 mg/kg | – | – | –
2 | COc1ccc2c(c1)c(C(C)CC(=O)[O-])c(C)n2Cc1ccc(Br)cc1.[Na+] (racemic) [sodium salt] | – | > 10000 nM | 4 nM | –
3 | COc1ccc2c(c1)c([C@@H]1C[C@H]1C(=O)[O-])c(C)n2Cc1ccc(Br)cc1.[Na+] (relative stereo) | 0.6 mg/kg | – | – | –
4 | COc1ccc2c(c1)c([C@@H]1C[C@H]1C(=O)[O-])c(C)n2Cc1ccc(Br)cc1.[Na+] (relative stereo) [sodium salt] | – | > 10000 nM | 46 nM | –
5 | COc1ccc2c(c1)c(CC(=O)O)c(C)n2C(=O)c1ccc(Cl)cc1 [Indomethacin, reference compound] | – | – | – | 0.9 mg/kg
6 | COc1ccc2c(c1)c(C(C)C(=O)O)c(C)n2Cc1ccc(Cl)cc1 (stereo not drawn) [MK-555, α-(1-p-chlorobenzyl-2-methyl-5-methoxy-3-indolyl)propionic acid, reference compound] | – | – | – | 3 mg/kg

From patent publication US5604253A, “N-benzylindol-3-yl propanoic acid derivatives as cyclooxygenase inhibitors” (priority 1995, dated 1997)
